Source: patent US9212180B2 (priority 2013, dated 2015)

Columns and labels:
[1] = system: MLL-ENL transformed murine bone marrow cells; experiment: Proliferation of MLL-ENL transformed murine bone marrow cells; type: cell-based; conditions: FIG. 2
Kasumi-1 = experiment: Apoptosis in control cell line Kasumi-1 without MLL translocation; type: cell-based; conditions: Kasumi-1 control cell line without MLL translocation; FIG. 8B
MLL leukemia cells = experiment: Cell cycle arrest in MLL leukemia cells; type: cell-based; conditions: different MLL leukemia cells; FIG. 9
[2] = system: MLL-AF9 transformed murine bone marrow cells; experiment: Colony forming assay in MLL-AF9 transformed murine bone marrow cells; type: cell-based; conditions: FIG. 10
ML-2 = experiment: Apoptosis in human MLL leukemia cell line ML-2; type: cell-based; conditions: FIG. 8A
[3] = system: MLL-AF9 transformed murine bone marrow cells; experiment: Proliferation of MLL-AF9 transformed murine bone marrow cells; type: cell-based; conditions: FIG. 2
MV4;11 [4] = experiment: Apoptosis in human MLL leukemia cell line MV4;11; type: cell-based; conditions: FIG. 8A
[5] = system: MLL-AF9 transformed murine bone marrow cells; experiment: Differentiation of MLL-AF9 transformed murine bone marrow cells; type: cell-based; conditions: for differentiation as assessed by increased expression of the CD11b differentiation marker: FIG. 4; for differentiation as assessed by significant change in morphology: FIG. 5
Hoxa9 and Meis1 = experiment: Expression level of Hoxa9 and Meis1 in MLL-AF9 transformed bone marrow cells; type: cell-based, murine; conditions: FIG. 1B
KOPN8 = experiment: Differentiation of human MLL leukemia cell line KOPN8; type: cell-based; conditions: FIG. 7
MI-2 = experiment: Differentiation of human MLL leukemia cell line MI-2; type: cell-based; conditions: FIG. 7
MV4;11 [6] = experiment: Differentiation of human MLL leukemia cell line MV4;11; type: cell-based; conditions: FIG. 6, FIG. 7
MonoMac-6 = experiment: Differentiation of human MLL leukemia cell line MonoMac-6; type: cell-based; conditions: FIG. 7

N#Cc1ccc(OCCCN2CCC(C(O)c3ccccc3)CC2)cc1 (stereo not shown) [B76 (NC)]
inhibition of proliferation [1]: No such effect
apoptosis (Kasumi-1): No effect on apoptosis
cell cycle arrest (MLL leukemia cells): No such effect
transforming properties of MLL-AF9 fusion protein (colony number, morphology of colonies) [2]: but not NC reduce transforming properties
apoptosis (ML-2): but not the control compound (NC) induce apoptosis
inhibition of proliferation [3]: No such effect
apoptosis (MV4;11 [4]): but not the control compound (NC) induce apoptosis

N#Cc1ccc(OCCCN2CCC([C@](O)(c3ccccc3)C3CCCC3)CC2)cc1 [Compound B19]
differentiation as assessed by increased expression of the CD11b differentiation marker [5]: induces differentiation
differentiation as assessed by significant change in morphology [5]: induces differentiation
apoptosis (Kasumi-1): No effect on apoptosis
expression level of Hoxa9 and Meis1 (Hoxa9 and Meis1): strongly downregulates
differentiation (change in the CD11b expression and change in morphology of cells) (KOPN8): induce differentiation
cell cycle arrest (MLL leukemia cells): induce cell cycle arrest
transforming properties of MLL-AF9 fusion protein (colony number, morphology of colonies) [2]: reduce transforming properties
differentiation (change in the CD11b expression and change in morphology of cells) (MI-2): induce differentiation
differentiation (CD11b expression and morphology change) (MV4;11 [6]): induce differentiation
apoptosis (ML-2): induce apoptosis
differentiation (change in the CD11b expression and change in morphology of cells) (MonoMac-6): induce differentiation
apoptosis (MV4;11 [4]): induce apoptosis

N#Cc1ccc(OCCCN2CCC([C@@](O)(c3ccccc3)C3CCCC3)CC2)cc1 [Compound B20]
differentiation as assessed by increased expression of the CD11b differentiation marker [5]: induces differentiation
differentiation as assessed by significant change in morphology [5]: induces differentiation
apoptosis (Kasumi-1): No effect on apoptosis
expression level of Hoxa9 and Meis1 (Hoxa9 and Meis1): strongly downregulates
differentiation (change in the CD11b expression and change in morphology of cells) (KOPN8): induce differentiation
cell cycle arrest (MLL leukemia cells): induce cell cycle arrest
transforming properties of MLL-AF9 fusion protein (colony number, morphology of colonies) [2]: reduce transforming properties
differentiation (change in the CD11b expression and change in morphology of cells) (MI-2): induce differentiation
differentiation (CD11b expression and morphology change) (MV4;11 [6]): induce differentiation
apoptosis (ML-2): induce apoptosis
differentiation (change in the CD11b expression and change in morphology of cells) (MonoMac-6): induce differentiation
apoptosis (MV4;11 [4]): induce apoptosis
